This is an account of results in patent US20040034019A1, “Piperazine and piperidine derivatives” (priority 2002, published 2004).

Bounds are passed on as bounds.

For orientation: EC50 means the concentration that produces a half-maximal response.

The subject of the assay is rat embryo ventral mesencephalic cells. Briefly: Neuroprotection assay (NMDA neuroexcitotoxic injury, high affinity 3H-dopamine uptake). Format: cell-based, Sprague-Dawley rat. The following applies: embryonic day 15 rat VM cell culture, NMDA (100-400 μM) for 20 hours. The text has this: The neuroprotective activity of the compounds of this invention may be assayed using rat embryo ventral mesencephalic cells in culture which are subsequently exposed to the glutamate receptor agonist NMDA. This assay is described in detail in the example section.
The ventral mesencephalic region was dissected out of embryonic day 15 Sprague-Dawley rat embryos (Harlan), dissociated into single cell suspension by a combination of trypsinization and trituration (Costantini et al., Neurobiol Dis., pp. 97-106 (1998). Dissociated VM cells were plated into poly-L-ornithine-coated 96-well plates at a density of 85,000 cells/well in 100 uL of DMEM supplemented with 18% heat-inactivated horse serum, 0.24% glucose, 2 mM glutamine and 50 u/ml penicillin/streptomycin and incubated in a 5% CO2 incubator. After one day in culture (DIV1), the medium was replaced with 100 μL of a defined medium (DMEM supplemented with 1× N2 cocktail (Gibco-BRL), 0.12% glucose, 2 mM glutamine, and 50 units/ml penicillin/streptomycin) containing DMSO or various concentrations of the compounds of this invention. On DIV5, neuroexcitotoxic injury was induced by the addition of various concentrations of the glutamate receptor agonist NMDA (100-400 μM). Cultures were incubated with the neurotoxin for 20 hours and the effects of neurophilin compounds were assessed using high affinity ^3H-dopamine uptake according to a procedure published by Park and Mytilineou [Brain Res., 599, pp. 83-97 (1992)].
Take `CCN1[C@@H](C(=O)N2CCC(Cc3ccccc3)CC2)CC[C@H]1c1ccccc1` [Compound 246]: the EC50 was below 100 nM. The figure for `O=C([C@H]1CC[C@@H](c2ccccc2)N1Cc1ccccc1)N1CCN(C(c2ccc(F)cc2)c2ccc(F)cc2)CC1` [Compound 247] is above 500 nM; for `CCN1[C@@H](c2ccccc2)CC[C@H]1C(=O)N1CCC(Cc2ccccc2)CC1` [Compound 248] it is 100 to 500 nM.

On to `O=C([C@@H]1CC[C@H](c2ccccc2)N1Cc1ccccc1)N1CCN(C(c2ccc(F)cc2)c2ccc(F)cc2)CC1` [Compound 249], for which the EC50 was above 500 nM. Regarding `CCN1CC(c2ccccc2)C[C@H]1C(=O)N1CCC(Cc2ccccc2)CC1` (stereo partly drawn) [Compound 250], the 50% effective concentration (EC50) was above 500 nM. As for `O=C([C@@H]1C[C@@H](c2ccccc2)CN1Cc1ccccc1)N1CCN(C(c2ccc(F)cc2)c2ccc(F)cc2)CC1` [Compound 251], the EC50 was above 500 nM. The value for `CCN1CC[C@@H](c2ccccc2)[C@H]1C(=O)N1CCC(Cc2ccccc2)CC1` [Compound 252] was above 500 nM; that for `O=C([C@@H]1[C@H](c2ccccc2)CCN1Cc1ccccc1)N1CCN(C(c2ccc(F)cc2)c2ccc(F)cc2)CC1` [Compound 253] was above 500 nM; that for `CCN1CC[C@H]1C(=O)N1CCN(C(c2ccc(F)cc2)c2ccc(F)cc2)CC1` [Compound 254] was 100 to 500 nM. As to `CCN1CCC[C@H]1C(=O)N1CCC(Cc2ccc(F)cc2)CC1` [Compound 259], the EC50 is 100 to 500 nM. With `C=CCN1CCC[C@H]1C(=O)N1CCC(Cc2ccc(F)cc2)CC1` [Compound 263], the EC50 is below 100 nM. Turning to `CC(C)=CCN1CCC[C@H]1C(=O)N1CCC(Cc2ccc(F)cc2)CC1` [Compound 265], the EC50 was below 100 nM. The figure for `O=C([C@@H]1CCCN1CC1CC1)N1CCC(Cc2ccc(F)cc2)CC1` [Compound 267] is below 100 nM; for `O=C([C@@H]1CCCN1C/C=C/c1ccccc1)N1CCC(Cc2ccc(F)cc2)CC1` [Compound 269] it is 100 to 500 nM. With `O=C([C@@H]1CCCN1Cc1ccc(F)cc1)N1CCC(Cc2ccc(F)cc2)CC1` [Compound 271], the EC50 was below 100 nM.

Turning to `O=C(C1CCN(Cc2ccccc2)CC1)N1CCC(Cc2ccc(F)cc2)CC1` [Compound 272], the EC50 was 100 to 500 nM. The value for `O=C([C@@H]1CCCN1CCc1ccccc1)N1CCC(Cc2ccc(F)cc2)CC1` [Compound 273] was below 100 nM. The value for `Cc1ccc(CN2CCC[C@H]2C(=O)N2CCC(Cc3ccc(F)cc3)CC2)cc1` [Compound 275] was below 100 nM; that for `O=C([C@@H]1CCCN1Cc1ccc(F)c(F)c1)N1CCC(Cc2ccc(F)cc2)CC1` [Compound 277] was below 100 nM.

Regarding `O=C(C1CCN(CC2CC2)CC1)N1CCC(Cc2ccc(F)cc2)CC1` [Compound 278], the EC50 was below 100 nM. In the case of `O=C([C@@H]1CCCN1Cc1cccc(F)c1)N1CCC(Cc2ccc(F)cc2)CC1` [Compound 279], the EC50 was below 100 nM.
